From patent publication US20120149645A1, “COMPOSITIONS AND MODULATION OF MYOCYTE ENHANCER FACTOR 2 (MEF2)” (EMORY UNIVERSITY, priority 2010, published 2012)

B1: Mt2D: Mitochondria-targeting active MEF2D: mouse MEF2D 1-493aa with added mitochondria-targeting signal, lacking nuclear localization signals (protein, UniProt Q63943 1-493, looked up, fragment)
chain: MGRKKIQIQRITDERNRQVTFTKRKFGLMKKAYELSVLCDCEIALIIFNHSNKLFQYASTDMDKVLLKYTEYNEPHESRTNADIIETLRKKGFNGCDSPEPDGEDSLEQSPLLEDKYRRASEELDGLFRRYGSSVPAPNFAMPVTVPVSNQSSMQFSNPSSSLVTPSLVTSSLTDPRLLSPQQPALQRNSVSPGLPQRPASAGAMLGGDLNSANGACPSPVGNGYVSARASPGLLPVANGNSLNKVIPAKSPPPPTHNTQLGAPSRKPDLRVITSQGGKGLMHHLTEDHLDLNNAQRLGVSQSTHSLTTPVVSVATPSLLSQGLPFSSMPTAYNTDYQLPSAELSSLPAFSSPAGLALGNVTAWQQPQPPQQPQPPQPPQSQPQPPQPQPQQPPQQQPHLVPVSLSNLIPGSPLPHVGAALTVTTHPHISIKSEPVSPSRERSPAPPPPAVFPAARPEPGEGLSSPAGGSYETGDRDDGRGDFGPTLGLLRPA
modifications: mitochondria-targeting signal added
B2: MEF2D1-131: dominant-negative form of MEF2D which interferes with nuclear MEF2 function (protein, UniProt Q63943 1-131, looked up, fragment)
chain: MGRKKIQIQRITDERNRQVTFTKRKFGLMKKAYELSVLCDCEIALIIFNHSNKLFQYASTDMDKVLLKYTEYNEPHESRTNADIIETLRKKGFNGCDSPEPDGEDSLEQSPLLEDKYRRASEELDGLFRRY

Experiments:
ND6 mRNA = assay: Real-time PCR of mitochondria-encoded mRNA levels in SN4741 cells; format: cell-based, mouse; settings: SN4741 cells; relatively short exposure to toxicant
Source text: (§1) (A) Mitochondria-targeting MEF2D (Mt2D) and mitochondria-targeting dominant-negative MEF2D (Mt2Ddn), which lacks the transactivation domain (TAD). […] Control indicates the control vector group. (C) Effects of Mt2D or Mt2Ddn on ND6 expression in SN4741 cells. Over-expression of Mt2Ddn in SN4741 cells reduced ND6 but not PPAR-γ coactivator 1 (PGC1) expression by western blotting (n=4, **p<0.01). Control indicates the control vector group. (D) Effects of over-expression of Mt2D or Mt2Ddn on mRNA levels of mitochondria encoded genes. […] Control indicates the control vector group. (E) Effects of Mt2D or Mt2Ddn on mtDNA L-strand transcription initiation in vitro (n=3; **P<0.01). A human mtDNA fragment containing mitochondrial L-strand promoter (LSP) and ND6 gene was used in the in vitro transcription assay. […] (F) Effects of Mt2D or Mt2Ddn on mtDNA de novo transcription in vivo (n=3; **P<0.01). Control (−) is without primers. Control (+) indicates the control vector group.

SN4741 cells [1] = assay: WST-1 cell viability assay; format: cell-based, mouse; settings: SN4741 cells; different doses of MPP+ for 24 hours
Description: (§2) (A) Reduced binding of MEF2D to ND6 after neurotoxin treatment. SN4741 cells were treated with MPP+ (25 μM) or rotenone (Rot, 100 nM) for 12 hours. […] Control indicates untreated. […] Control indicates untreated. (C) Immunocytochemical analysis of mitochondrial MEF2D after MPP+ and rotenone treatment. SN4741 cells treated as described in (A) were stained (scale bar, 10 μm). […] Experiments were repeated four times. Control indicates untreated. […] SN4741 cells were treated with MPP+ after infection with the control, Mt2Ddn or Mt2DVP16 or MtND6 lentiviruses for 24 hours (upper graph: different doses of MPP+ for 24 hours; lower graph: 5 μM of MPP+ for different times). Cell viability was measured by WST-1 assay (n=4; *p<0.05; **P<0.01). Control indicates the control vector group.
WST-1 assay was done using a kit (cat. no. 11644807001) from Roche and following procedures provided by the manufacturer. WST-1 (4-[3-(4-Iodophenyl)-2-(4-nitrophenyl)-2H-5-tetrazolio]-1,3-benzene disulfonate) is a water-soluble tetrazolium salt whose cleavage by cellular enzymes correlates with cell viability. Cells were seeded in 96-well plates and treated as indicated. Than 10 μl/well of premixed WST-1 Cell Proliferation Reagent was added, and the cells were incubated for an additional 4 hr under the same conditions. Absorbance at 450 nm was measured on a multi-well plate reader (Bio-Tek).

SN4741 cells [2] = assay: Immunocytochemistry, colocalization of MEF2D with MitoTracker; format: cell-based, mouse; settings: SN4741 cells and primary midbrain dopamine neurons; toxicant treatment
Description: as §2
SN4741 cells or primary midbrain DA neurons were plated on glass slides in 24-well plates. Localizations of endogenous and exogenous MEF2D were visualized on a Zeiss LSM5 PASCAL confocal microscope. To visualize colocalization of MEF2D with the mitochondria, cells were stained with MitoTracker (Invitrogen) and anti-MEF2D (BD Bioscience) or anti-FLAG (Sigma) antibodies. Quantification of colocalization of signals was done using “Colocalization Analysis” program of software Image Pro (Media Cybernetics). Overlap coefficients of 50 cells in each group were collected. […]

MEF2D binding to ND6 = assay: ChIP assay of MEF2D binding to the ND6 MEF2 site in purified mitochondria; format: cell-based, mouse; settings: for binding of mitochondrial MEF2D to the ND6 MEF2 site: SN4741 cells, MPP+ 25 μM or rotenone 100 nM for 12 hours
Source text: as §1, §2
Andres et al., J Biol Chem, 1995, 270:23246-23249. Moreover, this putative MEF2 binding site is conserved among several species. To test whether MEF2D binds to this putative MEF2 site, electronic mobility shift assay (EMSA) was performed. N-terminal MEF2D formed a complex with the labeled probe containing the ND6 MEF2 site. […] To corroborate this finding, a chromatin immunoprecipitation (ChIP) assay was carried out using highly purified mitochondria. […] ND6 but not ND2 based primers could amplify the bound sequence (FIG. 3C). Sequence analysis of the DNA bound by MEF2D after amplification confirmed the presence of the ND6 MEF2 site (FIG. 3D).

MEF2D and ND6 proteins = assay: Western blotting of MEF2D, ND6 and PGC1 protein levels in SN4741 cells; format: cell-based, mouse; settings: for level of ND6 protein / level of mitochondrial MEF2D protein / level of MEF2D in the nucleus / level of MEF2D in whole cell: SN4741 cells; for level of ND6 protein / level of mitochondrial MEF2D protein: purified mitochondria, MPP+ 25 μM or rotenone 100 nM for 12 hours; for level of MEF2D in the nucleus / level of MEF2D in whole cell: same toxicant condition
Source text: as §1, §2
(§3) (A) Diagrams of Mt2DVP16 and MtND6. Mt2DVP16 was constructed by fusion of transactivation domain (TAD) of VP16 with DNA-binding domain of MEF2D and a mitochondria-targeting sequence (Mito). […] (C) Over-expression of Mt2DVP16 attenuated MEF2D siRNA-induced reduction of ND6 expression (n=3, **P<0.01).

SN4741 cells [3] = assay: Mitochondrial functional assays (ATP, H2O2, membrane potential); format: cell-based, mouse; settings: over-expression in SN4741 cells
Source text: (§4) (A) Requirement of mitochondrial MEF2D for complex I activity. […] Control indicates the control vector group. (B) Over-expression of ND6 rescued complex I activity reduced by Mt2Ddn. Control indicates the control vector group. (C) Measurement of various complex activities. […] Control indicates the control vector group. (D) Effects of over-expression of Mt2D or Mt2Ddn on mitochondrial function. Mt2Ddn reduced cellular ATP level and elevated H2O2 production in SN4741 cells (n=4; *p<0.05; **P<0.01). Control indicates the control vector group.
(§5) Mitochondrial complex I activity was evaluated initially by blue native-polyacrylamide gel electrophoresis (BN-PAGE) and in-gel activity staining. This assay measures total complex I activity. Rotenone sensitive complex I activity and activities of other mitochondrial complexes were further measured by methods described by Antoni et al., J Biol Chem, 1998, 273:14210-14217. Briefly, parallel assays were performed to measure complex I activity at 340 nm using 2,3-dimethoxy-5-methyl-6-n-decyl-1,4-benzoquinone (DB) (50 μM) as acceptor and NADH (0.8 mM) as donor, in 50 mM Tris (pH 8.0) buffer supplemented with 5 mg/ml BSA either without or with the addition of 4 μM rotenone, which gave total and rotenone insensitive complex I activities, respectively. The difference in value between the two provided a quantified measure of the rotenone-sensitive activity. Mitochondrial membrane potential was detected using a kit (cat. no. 280002) from Stratagene following the procedures provided by the manufacturer. The fluorescent dye JC-1 (5,5′,6,6′-tetrachloro-1,1′,3,3′-tetraethylbenzimidazolyl carbocyanine iodide) stains mitochondria red in a membrane potential dependent manner. Briefly, cells were seeded in 96-well plates at 4×10^4 cells/well with 100 μl culture medium and incubated at 33° C. with 5% CO2. After treatment, 10 μl/well of premixed JC-1 staining solution was added, and the cells were incubated for an additional 30 min under the same conditions. After thorough washes, 100 μl assay buffer was added to each well. Fluorescence signal was detected with excitation and emission at 520 nm and 590 nm, respectively, on a multi-well plate reader (Bio-Tek). Cellular ATP and H202 were measured by Bioluminescent Somatic Cell ATP Assay Kit (Sigma) and Hydrogen Peroxide Assay Kit (Cayman), respectively.

SN4741 cells [4] = assay: Subcellular localization of over-expressed MEF2D constructs; format: cell-based, mouse; settings: over-expressed in SN4741 cells
Source text: (A) Lack of mitochondrial localization by ΔN30MEF2D. […] VDAC, PARP and c-Raf are Mt, Nu and Cy markers, respectively. Control indicates the control vector group. (B) Immunocytochemistry analysis of mitochondrial localization of transfected Flag-MEF2D. […] Experiments were repeated four times. (C, D) Requirement of mtHsp70 for mitochondria-targeting of MEF2D (n=4; **p<0.01). Control indicates untreated. […]. Knocking down mouse mtHsp70 by siRNA reduced MEF2D level in purified mitochondria from SN4741 cells (C). […] MnSOD is a known mtHsp70-imported mitochondrial matrix protein.
as §3
(§6) Control indicates the group co-tranfected with control vector.
SN4741 cells or primary midbrain DA neurons were plated on glass slides in 24-well plates. Localizations of endogenous and exogenous MEF2D were visualized on a Zeiss LSM5 PASCAL confocal microscope. […] Quantification of colocalization of signals was done using “Colocalization Analysis” program of software Image Pro (Media Cybernetics). […]

nuclear MEF2 = assay: MEF2 luciferase reporter assay; format: cell-based; settings: co-transfected with MEF2 luciferase reporter
Source text: as §6
MEF2 luciferase reporter assay was done as described Wang et al., J Biol Chem, 2005, 280:16705-16713. Briefly, cells were transiently transfected with various constructs with MEF2 luciferase reporter plasmid (WT, reporter with wild type MEF2 DNA binding sites; mt, reporter with the MEF2 DNA binding sites mutated) using Lipofectimane 2000 (Invitrogen) following procedures provided by the manufacturer. A β-galactosidase expression plasmid was used to determine the efficiency in each transfection. The total amount of DNA for each transfection was kept constant by using control vectors. Cell lysates were analyzed for luciferase and β-galactosidase activity according to the manufacturer's instructions (Roche, cat. no. 11669893001).

mitochondrial complex I = assay: Mitochondrial complex protein level and activity (BN-PAGE, in-gel staining, quantitative assays); format: cell-based, mouse; settings: over-expression in SN4741 cells
Source text: as §4, §5

[5] = system: human mtDNA fragment containing mitochondrial L-strand promoter (LSP) and ND6 gene; assay: In vitro mtDNA L-strand transcription assay; format: biochemical
Source text: as §1

[6] = construct over-expressed in SN4741 cells

Row | Molecule | mRNA level of ND6 (ND6 mRNA) | neuronal viability (SN4741 cells [1]) | colocalization of MEF2D and MitoTracker signals (SN4741 cells [2]) | binding of mitochondrial MEF2D to the ND6 MEF2 site (MEF2D binding to ND6) | level of ND6 protein (MEF2D and ND6 proteins) | level of mitochondrial MEF2D protein (MEF2D and ND6 proteins) | level of MEF2D in the nucleus (MEF2D and ND6 proteins) | level of MEF2D in whole cell (MEF2D and ND6 proteins) | cellular ATP level (SN4741 cells [3]) | hydrogen peroxide production by mitochondria (SN4741 cells [3]) | mitochondrial membrane potential (SN4741 cells [3]; JC-1) | mitochondrial localization by immunocytochemical staining (MitoTracker) (SN4741 cells [4]) | nuclear MEF2 activity (MEF2 reporter) (nuclear MEF2) | binding of full length MEF2D to the ND6 MEF2 site (MEF2D binding to ND6; [6]) | mitochondrial complex I activity (mitochondrial complex I) | ND6 protein level / expression (MEF2D and ND6 proteins; [6]) | level of L-strand promoter (LSP) transcripts [5]
1 | C[n+]1ccc(-c2ccccc2)cc1 [MPP+, 1-methyl-4-phenylpyridinium] | greatly reduced | loss of neuronal viability in a dose dependent manner | preferentially reduced | greatly reduced | decrease | decrease | not affected | not affected |  |  |  |  |  |  |  |  | 
2 | C=C(C)[C@H]1Cc2c(ccc3c2O[C@@H]2COc4cc(OC)c(OC)cc4[C@@H]2C3=O)O1 [rotenone] | greatly reduced |  | preferentially reduced | greatly reduced | decrease | decrease | not affected | not affected |  |  |  |  |  |  |  |  | 
3 | B1 |  |  |  |  |  |  |  |  | did not alter | did not alter | did not alter | targeted exclusively to mitochondria | did not affect | modulated | neither increased the protein level nor the activity | did not significantly change | increases
4 | B2 |  |  |  |  |  |  |  |  |  |  |  |  | interferes with nuclear MEF2 function |  |  |  | 
